Measurements published in patent US20050203151A1, “Novel compounds, compositions and uses thereof for treatment of metabolic disorders and related conditions” (Kalypsys, Inc., priority 2003, published 2005).
Where two headings read alike, the source gives them in different places.

Legend:
Format in all cases: cell-based
[1] = target: T1, PPAR-alpha (Homo sapiens, UniProt Q07869); test: human PPAR-GAL4 chimera luciferase reporter assay in CV-1 cells, PPAR-alpha
T1 construct: expressed in transfected cells; host or cells: CV-1 cells
T1 sequence (Q07869 239-466 limits assumed): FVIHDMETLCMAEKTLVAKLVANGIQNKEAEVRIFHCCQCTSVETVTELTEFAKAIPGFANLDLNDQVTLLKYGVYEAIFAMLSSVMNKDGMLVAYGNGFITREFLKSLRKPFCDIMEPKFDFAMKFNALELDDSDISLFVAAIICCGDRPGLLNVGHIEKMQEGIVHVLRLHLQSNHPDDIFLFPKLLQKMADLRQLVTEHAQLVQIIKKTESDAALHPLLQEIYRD
Experimental: (§1) The compounds were evaluated in a cell-based assay to determine their human PPAR activity. The plasmids for human PPAR-GAL4 chimeras were prepared by fusing amplified cDNAs encoding the LBDs of PPARs to the C-terminal end of the yeast GAL4 DNA binding domain. CV-1 cells were grown and transiently transected with PerFectin (GTS, San Diego, Calif.) according to the manufacturer's protocol along with a luciferase reporter. Eight hours after transfection, 50 μl of cells were replated into 384 well plates ([…]). Sixteen hours after replating, cells were treated with either compounds or 1% DMSO for 24 hours. Luciferase activity was then assayed with Britelite (Perkin Elmer) following the manufacturer's protocol and measured with either the Perkin Elmer Viewlux or Molecular Devices Acquest.
(§2) Compounds may be screened for functional potency in transient transfection assays in CV-1 cells for their ability to activate the PPAR subtypes (transactivation assay). A previously established chimeric receptor system was utilized to allow comparison of the relative transcriptional activity of the receptor subtypes on the same synthetic response element and to prevent endogenous receptor activation from complicating the interpretation of results. See, for example, Lehmann, J. M.; Moore, L. B.; Smith-Oliver, T. A; Wilkinson, W. O.; Willson, T. M.; Kliewer, S. A., An antidiabetic thiazolidinedione is a high affinity ligand for peroxisome proliferator-activated receptory γ (PPARγ), J. Biol. Chem., 1995, 270, 12953-6. The ligand binding domains for murine and human PPAR-alpha, PPAR-gamma, and PPAR-delta are each fused to the yeast transcription factor GAL4 DNA binding domain. CV-1 cells were transiently transfected with expression vectors for the respective PPAR chimera along with a reporter construct containing four or five copies of the GAL4 DNA binding site driving expression of luciferase. After 8-16 h, the cells are replated into multi-well assay plates and the media is exchanged to phenol-red free DME medium supplemented with 5% delipidated calf serum. 4 hours after replating, cells were treated with either compounds or 1% DMSO for 20-24 hours. Luciferase activity was then assayed with Britelite (Perkin Elmer) following the manufacturer's protocol and measured with either the Perkin Elmer Viewlux or Molecular Devices Acquest (see, for example, Kliewer, S. A., et. al. Cell 1995, 83, 813-819). Rosiglitazone is used as a positive control in the hPPAR-γ assay. Wy-14643 and GW7647 is used as a positive control in the hPPAR-α assay. GW501516 is used as the positive control in the hPPAR-δ assay.

[2] = target: T2, PPAR-gamma (Homo sapiens, UniProt P37231); test: human PPAR-GAL4 chimera luciferase reporter assay in CV-1 cells, PPAR-gamma
T2 construct: expressed in transfected cells; host or cells: CV-1 cells
T2 sequence (P37231 238-503 limits assumed): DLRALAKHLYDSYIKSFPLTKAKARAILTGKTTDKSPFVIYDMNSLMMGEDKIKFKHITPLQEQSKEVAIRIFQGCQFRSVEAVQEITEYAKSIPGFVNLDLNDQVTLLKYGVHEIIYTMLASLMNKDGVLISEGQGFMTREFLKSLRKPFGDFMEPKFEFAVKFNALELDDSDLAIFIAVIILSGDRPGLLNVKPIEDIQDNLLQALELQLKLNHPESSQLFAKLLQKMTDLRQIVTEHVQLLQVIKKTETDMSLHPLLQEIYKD
Experimental: as §1, §2

[3] = target: T3, PPAR-delta (Homo sapiens, UniProt Q03181); test: human PPAR-GAL4 chimera luciferase reporter assay in CV-1 cells, PPAR-delta
T3 construct: expressed in transfected cells; host or cells: CV-1 cells
T3 sequence (Q03181 211-439 limits assumed): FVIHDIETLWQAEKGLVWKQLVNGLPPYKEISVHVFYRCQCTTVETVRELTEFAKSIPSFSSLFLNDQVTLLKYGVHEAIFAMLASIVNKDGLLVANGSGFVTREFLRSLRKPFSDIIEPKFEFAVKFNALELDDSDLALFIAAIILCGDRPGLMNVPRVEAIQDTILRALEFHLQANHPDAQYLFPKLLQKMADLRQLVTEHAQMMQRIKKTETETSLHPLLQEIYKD
Experimental: as §1, §2

[4] = Table 2, Examples 1-10, read-out: PPAR α EC50
[5] = Table 2, Examples 1-10, read-out: PPAR γ EC50
[6] = Table 2, Examples 1-10, read-out: PPAR δ EC50
[7] = Table 3, Examples 11-25, read-out: PPAR alpha (EC50)
[8] = Table 3, Examples 11-25, read-out: PPAR gamma (EC50)
[9] = Table 3, Examples 11-25, read-out: PPAR delta (EC50)

SMILES | EC50 [1, 4] | EC50 [2, 5] | EC50 [3, 6] | EC50 [1, 7] | EC50 [2, 8] | EC50 [3, 9]
Cc1nc(-c2ccc(C(F)(F)F)cc2)sc1CSc1cccc(CC(=O)O)c1 [Example 2, {3-[4-methyl-2-(4-trifluoromethyl-phenyl)-thiazol-5-ylmethylsulfanyl]-phenyl}-acetic acid] | < 1 µM | 1 to 10 µM | < 1 µM | – | – | –
Cc1nc(-c2ccc(C(F)(F)F)cc2)sc1Cn1ccc2cccc(OCC(=O)O)c21 [Example 14, {1-[4-Methyl-2-(4-trifluoromethyl-phenyl)-thiazol-5-ylmethyl]-1H-indol-7-yloxy}-acetic acid] | – | – | – | > 100 µM | 5 to 100 µM | 5 to 100 µM
Cc1nc(-c2ccc(C(F)(F)F)cc2)sc1Cn1cc(CC(=O)O)c2ccccc21 [Example 24, {1-[4-Methyl-2-(4-trifluoromethyl-phenyl)-thiazol-5-ylmethyl]-1H-indol-3-yl}acetic acid] | – | – | – | 5 to 100 µM | 5 to 100 µM | < 5 µM
Cc1nc(-c2ccc(C(F)(F)F)cc2)sc1CCn1ccc2ccc(OCC(=O)O)cc21 [Example 22, (1-{2-[4-Methyl-2-(4-trifluoromethyl-phenyl)-thiazol-5-yl]-ethyl}-1H-indol-6-yloxy)-acetic acid] | – | – | – | 5 to 100 µM | 5 to 100 µM | 5 to 100 µM
Cc1nc(-c2ccc(C(F)(F)F)cc2)sc1CCn1ccc2cc(OCC(=O)O)ccc21 [Example 18, (1-{2-[4-Methyl-2-(4-trifluoromethyl-phenyl)-thiazol-5-yl]-ethyl}-1H-indol-5-yloxy)-acetic acid] | – | – | – | 5 to 100 µM | 5 to 100 µM | 5 to 100 µM
Cc1nc(-c2ccc(C(F)(F)F)cc2)sc1COc1ccc2[nH]cc(CC(=O)O)c2c1 [Example 7, {5-[4-Methyl-2-(4-trifluoromethyl-phenyl)-thiazol-5-ylmethoxy]-1H-indol-3-yl}-acetic acid] | > 10 µM | < 1 µM | < 1 µM | – | – | –
Cc1nc(-c2ccc(C(F)(F)F)cc2)sc1Cn1ccc2c(C(=O)O)cccc21 [Example 9, 1-[4-methyl-2-(4-trifluoromethyl-phenyl)-thiazol-5-ylmethyl]-1H-indole-4-carboxylic acid] | > 10 µM | > 10 µM | > 10 µM | – | – | –
Cc1nc(-c2ccc(C(F)(F)F)cc2)sc1CCN1CCc2ccc(OC(C)(C)C(=O)O)cc21 [Example 20, 2-Methyl-2-(1-{2-[4-methyl-2-(4-trifluoromethyl-phenyl)-thiazol-5-yl]-ethyl}-2,3-dihydro-1H-indol-6-yloxy)-propionic acid] | – | – | – | < 5 µM | 5 to 100 µM | 5 to 100 µM
Cc1nc(-c2ccc(C(F)(F)F)cc2)sc1Cn1cc(C(=O)O)c2ccccc21 [Example 8] | > 10 µM | > 10 µM | > 10 µM | – | – | –
Cc1nc(-c2ccc(C(F)(F)F)cc2)sc1COc1cccc(CC(=O)O)c1 [Example 1, {3-[4-methyl-2-(4-trifluoromethyl-phenyl)-thiazol-5-ylmethoxy]-phenyl}-acetic acid] | < 1 µM | 1 to 10 µM | < 1 µM | – | – | –
Cc1nc(-c2ccc(C(F)(F)F)cc2)sc1Cn1ccc2cc(OC(C)(C)C(=O)O)ccc21 [Example 15, 2-Methyl-2-{1-[4-methyl-2-(4-trifluoromethyl-phenyl)-thiazol-5-ylmethyl]-1H-indol-5-yloxy}-propionic acid] | – | – | – | < 5 µM | 5 to 100 µM | < 5 µM
Cc1nc(-c2ccc(C(F)(F)F)cc2)sc1COc1ccc2ccn(CC(=O)O)c2c1 [Example 5, {6-[4-methyl-2-(4-trifluoromethyl-phenyl)-thiazol-5-ylmethoxy]-indol-1-yl}-acetic acid] | > 10 µM | 1 to 10 µM | < 1 µM | – | – | –
Cc1nc(-c2ccc(C(F)(F)F)cc2)sc1COc1cccc2ccn(CC(=O)O)c12 [Example 6, {7-[4-methyl-2-(4-trifluoromethyl-phenyl)-thiazol-5-ylmethoxy]-indol-1-yl}-acetic acid] | > 10 µM | > 10 µM | > 10 µM | – | – | –
